# Results: patent US8034926B2 (Abbott Laboratories, priority 2007, dated 2011)
# “Also recorded” adds a separate entry of the source.
# What was measured:
# [1] = pharmacokinetics after a single intravenous dose in cynomolgus monkey; settings: in vivo, 2.5 mg/kg
# [2] = release of drug from PC polymer-coated 316 L stainless steel coupons; type: physicochemical; settings: PC polymer-coated 316 L coupon
# Source text: Rubber septa from lids from HPLC vials were removed from the vials and placed into glass vials so that the “Teflon” side faced up. These septa served as supports for the test samples. The test samples were 316 L, stainless steel coupons that had been previously coated with a biocompatible polymer containing phosphorylcholine side groups (PC polymer). Coronary stents are commonly made of 316 L stainless steel and can be coated with the PC polymer to provide a depot site for loading drugs. The coated coupons, which serve to simulate stents, were placed onto the septa. By using a glass Hamilton Syringe, a solution of A-179578 and ethanol (10 μl) was applied to the surface of each coupon. The solution contained A-179578 (30.6 mg) dissolved in 100% ethanol (3.0 ml). The syringe was cleaned with ethanol between each application. The cap to the glass vial was placed on the vial loosely, thereby assuring proper ventilation. The coupon was allowed to dry for a minimum of 1.5 hours. Twelve (12) coupons were loaded in this way, six being used to determine the average amount of drug loaded onto the device and six being used to measure the time needed to release the drug from the devices.
# The coupon was placed onto a 5210 Branson sonicator for one hour. The coupon was then removed from the solution, and the solution was assayed by HPLC.
# The time release studies were performed by immersing and removing the individual coupons from fresh aliquots (10.0 ml) of 0.01 M phosphate buffer at a pH of 6.0 at each of the following time intervals; 5, 15, 30 and 60 minutes. For the remaining time points of 120, 180, 240, 300, 360 minutes, volumes of 5.0 ml of buffer were used. To facilitate mixing during the drug release phase, the samples were placed onto a Eberbach shaker set at low speed. All solution aliquots were assayed by HPLC after the testing of the last sample was completed.
# The HPLC analysis was performed with a Hewlett Packard series 1100 instrument having the following settings: Injection Volume is 100 μl; Acquisition Time is 40 minutes; Flow Rate is 1.0 ml/min; Column Temperature is 40 degrees Celsius; Wavelength is 278 nm; Mobile Phase is 65% Acetonitrile/35% H20; and Column is YMC ODS-A S5 μm, 4.6×250 mm (Part No. Al2052546WT).
# [3] = tested on: neointimal formation in porcine coronary arteries containing stents; assay: porcine coronary stent model, histomorphometry at 28 days; type: in vivo
# Source text: The control stents are polymer-coated without drugs. This is important, for the polymer itself must not stimulate neointimal hyperplasia to a substantial degree. As the eluted drug disappears, an inflammatory response to the polymer could conceivably result in a late “catch-up phenomenon” where the restenosis process is not stopped, but instead slowed. This phenomenon would result in restenosis at late dates in human subjects.
# Stems were implanted in two blood vessels in each pig. Pigs used in this model were generally 2-4 months old and weighed 30-40 kg. Two coronary stents were thus implanted in each pig by visually assessing a “normal” stent:artery ratio of 1.1-1.2.
# Beginning on the day of the procedure, pigs were given oral aspirin (325 mg daily) and continued for the remainder of their course. General anesthesia was achieved by means of intramuscular injection followed by intravenous ketamine (30 mg/kg) and xylazine (3 mg/kg). Additional medication at the time of induction included atropine (1 mg) and flocillin (1 g) administered intramuscularly. During the stenting procedure, an intraarterial bolus of 10,000 units of heparin was administered.
# Arterial access was obtained by cutdown on the right external carotid and placement of an 8F sheath. After the procedure, the animals were maintained on a normal diet without cholesterol or other special supplementation.
# The BiodivYsio stent was used with nominal vessel target size of 3.0 mm. Two coronary arteries per pig were assigned at random to deployment of the stents. The stent was either a drug eluting stent (polymer plus drug stent) or a stent coated with a polymer only (polymer only stent). The stents were delivered by means of standard guide catheters and wires. The stent balloons were inflated to appropriate sizes for less than 30 seconds.
# Each pig had one polymer only stent and one polymer plus drug stent placed in separate coronary arteries, so that each pig would have one stent for drug and one for control. A sample size of 20 pigs total was chosen to detect a projected difference in neointimal thickness of 0.2 mm with a standard deviation of 0.15 mm, at a power of 0.95 and […] 0.02.
# Animals were euthanized at 28 days for histopathologic examination and quantification. Following removal of the heart from the perfusion pump system, the left atrial appendage was removed for access to the proximal coronary arteries. Coronary arterial segments with injuries were dissected free of the epicardium. Segments containing lesions were isolated, thereby allowing sufficient tissue to contain uninvolved blood vessel at either end. […]
# The severity of vessel injury and the neointimal response were measured by calibrated digital microscopy. […]
# [4] = loading and release of drug from 15 mm BiodivYsio drug delivery stents; type: physicochemical; settings: 15 mm BiodivYsio stent
# Experimental: Twelve individual polymer-coated stents were placed on fixtures designed to hold the stent in a vertical position and the stents were immersed vertically in the drug solution for five minutes. The stents and fixtures were removed from the vials and excess drug solution was blotted away by contacting the stents with an absorbant material. The stents were then allowed to dry in air for 30 minutes in an inverted vertical position.
# The stents were removed from the fixtures, and each stent was placed into 50/50 acetonitrile/phosphate buffer (pH 5.1, 2.0 ml) and sonicated for one hour. The stems were removed from the solution and solutions were assayed for concentration of drug, which allowed calculation of the amount of drug originally on the stents. This method was independently shown to remove at least 95% of the drug from the stent coating. On average, the stents contained 60 micrograms of drug±20 micrograms.
# The drug-loaded stents were placed on the fixtures and placed into 0.01 M phosphate buffer (pH=6.0, 1.9 ml) in individual vials. These samples were placed onto an Eberbach shaker set at low speed to provide back-and-forth agitation. To avoid approaching drug saturation in the buffer, the stents were transferred periodically to fresh buffer vials at the following points: 15, 30, 45, 60, 120, 135, 150, 165, 180, 240, 390 minutes. The dissolution buffer vials were assayed by HPLC for the drug concentration at the end of the drug release period studied. The data, represented as % cumulative release of the drug as a function of time, is shown in tabular form below: […]
# [5] = tested on: neointima formation in the coronary arteries of adult miniature swine; assay: swine safety and efficacy study of drug dosages on in-stent neointima formation; type: in vivo, Yucatan miniature swine
# Experimental: The purpose of this example was to evaluate the safety and efficacy of different drug dosages on neointima formation. Drug was delivered from the BiodivYsio OC stent (15 mm) coated with AST-578. In-stent neointima formation was measured at […]; 3 days, 1 month, and 3 months in the coronary arteries of adult miniature swine. Forty (40) animals were studied at each time interval (10 animals per dose). Each animal received one drug-coated stent and one control stent. The control stent contained no drug.
# Potential local tissue toxicity was assessed at all time intervals by examining histopathologic changes in the stented region, adjacent coronary segments, perivascular tissue, and subserved myocardium. The mortality, angiographic implant and restudy data, histomorphometry data, and stent site histopathology were studied.
# [6] = porcine coronary arteries, 28 days
compound,measurement,setting,value
40-epi-N-[2′-pyridone]-rapamycin [Example 2-pyridone],AUC,[1],2550 ng·h/mL
"COC1CC2CCC(C)C(O)(O2)C(=O)C(=O)N2CCCCC2C(=O)OC(C(C)CC2CCC(n3cnnn3)C(OC)C2)CC(=O)C(C)C=C(C)C(O)C(OC)C(=O)C(C)CC(C)C=CC=CC=C1C (centres unmarked) [ABT-578, 42-(1-tetrazolyl)-rapamycin]",Percent Release,"[2]; 0.01 M phosphate buffer pH 6.0, 0.00 min",0.00%
same,Percent Release,"[2]; 0.01 M phosphate buffer pH 6.0, 5.00 min",1.87%
same,Percent Release,"[2]; 0.01 M phosphate buffer pH 6.0, 15.00 min",2.97%
same,Percent Release,"[2]; 0.01 M phosphate buffer pH 6.0, 30.00 min",3.24%
same,Percent Release,"[2]; 0.01 M phosphate buffer pH 6.0, 60.00 min",3.29%
same,Percent Release,"[2]; 0.01 M phosphate buffer pH 6.0, 180.00 min",4.36%
same,Percent Release,"[2]; 0.01 M phosphate buffer pH 6.0, 240.00 min",4.37%
same,Percent Release,"[2]; 0.01 M phosphate buffer pH 6.0, 300.00 min",6.34%
same,Percent Release,"[2]; 0.01 M phosphate buffer pH 6.0, 360.00 min",7.88%
same,lumen area vs polymer only stent,[3]; [6],greater lumen area
same,neointimal area vs polymer only stent,[3]; [6],lower neointimal area
same,neointimal thickness vs polymer only stent,[3]; [6],lower neointimal thickness
same,neointimal hyperplasia,[3]; stent with polymer in porcine coronary artery,reduction in neointimal hyperplasia
"CO[C@H]1C[C@@H]2CC[C@@H](C)[C@@](O)(O2)C(=O)C(=O)N2CCCC[C@H]2C(=O)O[C@H]([C@H](C)C[C@@H]2CC[C@H](n3cnnn3)[C@H](OC)C2)CC(=O)[C@H](C)/C=C(\C)[C@@H](O)[C@@H](OC)C(=O)[C@H](C)C[C@H](C)/C=C/C=C/C=C/1C [ABT-578, 42-(1-tetrazolyl)-rapamycin]",% Cumulative Release of Drug,"[4]; 0.01 M phosphate buffer pH 6.0, 15 min",0.3%
same,% Cumulative Release of Drug,"[4]; 0.01 M phosphate buffer pH 6.0, 30 min",1.1%
same,% Cumulative Release of Drug,"[4]; 0.01 M phosphate buffer pH 6.0, 45 min",2.1%
same,% Cumulative Release of Drug,"[4]; 0.01 M phosphate buffer pH 6.0, 60 min",3.2%
same,% Cumulative Release of Drug,"[4]; 0.01 M phosphate buffer pH 6.0, 120 min",4.3%
same,% Cumulative Release of Drug,"[4]; 0.01 M phosphate buffer pH 6.0, 135 min",5.9%
same,% Cumulative Release of Drug,"[4]; 0.01 M phosphate buffer pH 6.0, 150 min",6.3%
same,% Cumulative Release of Drug,"[4]; 0.01 M phosphate buffer pH 6.0, 165 min",6.8%
same,% Cumulative Release of Drug,"[4]; 0.01 M phosphate buffer pH 6.0, 180 min",7.4%
same,local coronary arterial wall toxicity: medial necrosis or stent malapposition,"[5]; any dose group up to approximately 27 μg/mm stent length, any time interval",no local coronary arterial wall toxicity
same,histologic % stenosis vs control,"[5]; one month, dose group 3",tendency towards decreased
same,absolute intima area vs control,"[5]; one month, dose groups 3 and 4",trends for decreases
same,intima thickness vs control,"[5]; one month, dose groups 3 and 4",trends for decreases
same,Intima area normalized to injury score vs control,"[5]; one month, dose groups 3 and 4 (10 and 27 μg/mm)",significantly decreased
same,neointima formation in stented coronary arteries,"[5]; one month, locally eluted from stent",significant inhibitory effect; also recorded: reduced in-stent neointima formation
same,extent of endothelial recovery over the stent struts,"[5]; three days after implant, all dosages, scanning electron microscopy",did not appear retarded
same,persistent inhibitory effect on neointima,[5]; three months,weak tendency
"COC1CC2CCC(C)C(O)(O2)C(=O)C(=O)N2CCCCC2C(=O)OC(C(C)CC2CCC(n3ccc(=O)cc3)C(OC)C2)CC(=O)C(C)C=C(C)C(O)C(OC)C(=O)C(C)CC(C)C=CC=CC=C1C (stereo not drawn) [Example 4-pyridone, 40-epi-N-[4′-pyridone]-rapamycin]",AUC,[1],5590 ng·h/mL
